According to patent publication US20120157422A1, “MARKER” (UCL BUSINESS PLC, priority 2009, published 2012):

Assays:
[1] = system: women at increased risk of preterm delivery; assay: PREMET subgroup providing saliva samples: metronidazole versus placebo; format: in vivo, human; details: 17 women on metronidazole vs 7 on placebo (36.4 weeks), p=0.73, no significant difference
Source text: A group of women at increased risk of preterm delivery participating in a study to assess the potential benefit of metronidazole in the prevention of preterm delivery (The PREMET study') provided saliva specimens from 24 weeks of gestation until 34 weeks or delivery in order to interrogate further the association between the steroid hormone profile and gestational age at delivery.
In the PREMET study 892 women with singleton pregnancies, who had at least one risk factor for preterm delivery, were recruited between 23^+0 and 24^+6 weeks over a four and a half year period.^1 Eligibility included singleton pregnancy with a history of preterm birth or preterm prelabour rupture of the membranes before 37 completed weeks of gestation, previous late miscarriage, uterine anatomical abnormality, cervical surgery prior to the index pregnancy or current cervical cerclage. Women were screened for cervico-vaginal fetal fibronectin (fFN) at 24 and 27 weeks gestation. Those who were fFN positive (≧50 ng/mL) were randomised to receive a one week course of metronidazole or placebo.
Weekly saliva samples, provided from 24 weeks of gestation until 34 weeks or delivery, were analysed for saliva E3 and progesterone by radioimmunoassay as previously described.^3 Briefly, aliquots (100 μL) of saliva were mixed with 50 μL sodium carbonate solution pH 10.5 and extracted with 10 volumes of diethyl ether. […]

[2] = system: women at increased risk of preterm delivery; details: whole PREMET study, fFN positive women, one week course; cited from earlier work
high risk women = details: versus placebo; cited from earlier work

Structure (SMILES) | gestational age at delivery [1] | preterm delivery associated with treatment [2] | benefit of the intervention (high risk women)
Cc1ncc([N+](=O)[O-])n1CCO [metronidazole] | 35.6 weeks | small but significant increase | –
CCCCCC(=O)O[C@]1(C(C)=O)CC[C@H]2[C@@H]3CCC4=CC(=O)CC[C@]4(C)[C@H]3CC[C@@]21C [17α hydroxyprogesterone caproate] | – | – | significant benefit
